According to patent publication US10869922B2 (priority 2016, dated 2020):

Columns and labels:
DC = experiment: Immunofluorescence co-localization experiment; format: cell-based, mouse; settings: DC treated by high NaCl concentration, FIG. 10d
Source text: Immunofluorescence co-localization experiment: the experimental group, ibid. Fix and permeabilize DC stimulated by high NaCl concentration and fluorescent labeled OVA in vitro, and stain with organelle fluorescent protein markers of proteasome and lysosome, and observe under the confocal microscopy.

[1] = tested on: DC and CD8+T lymphocytes from OT-1 transgenic mouse; experiment: DC/T lymphocyte co-culture experiment; format: cell-based
Source text: Co-culture DC stimulated by high NaCl concentration and OVA antigen in vitro and CFSE-labeled CD8+T lymphocytes from OT-1 transgenic mouse for 2-3 days, observe the formation of CLUSTER under white light of the microscope, detect the proliferation of CFSE-labeled CD8+T lymphocytes by flow cytometry, and detect the secretion of IL2 in the collected culturesupernatant by ELISA.

[2] = DC treated by high NaCl concentration and OVA, co-culture 2-3 days, FIGS. 10a, b and c

[Cl-].[Na+] [NaCl, sodium chloride]
degradation route of OVA in DC (DC): mostly degraded by proteasome rather than lysosome
proliferation of specific CD8+T lymphocytes [1, 2]: induce
secretion of IL2 [1, 2]: induce
cross antigen presentation of DC ([1]; high NaCl concentration, FIG. 10): significantly improve
